{
  "source": "patent US20110312961A1",
  "about": "“2,5-Disubstituted Morpholine Orexin REceptor Antagonists” (priority 2008, published 2011)",
  "key": {"[1]": {"target": "α7 nicotinic ACh receptors (Homo sapiens, UniProt P36544)", "sequence (P36544 23-502)": "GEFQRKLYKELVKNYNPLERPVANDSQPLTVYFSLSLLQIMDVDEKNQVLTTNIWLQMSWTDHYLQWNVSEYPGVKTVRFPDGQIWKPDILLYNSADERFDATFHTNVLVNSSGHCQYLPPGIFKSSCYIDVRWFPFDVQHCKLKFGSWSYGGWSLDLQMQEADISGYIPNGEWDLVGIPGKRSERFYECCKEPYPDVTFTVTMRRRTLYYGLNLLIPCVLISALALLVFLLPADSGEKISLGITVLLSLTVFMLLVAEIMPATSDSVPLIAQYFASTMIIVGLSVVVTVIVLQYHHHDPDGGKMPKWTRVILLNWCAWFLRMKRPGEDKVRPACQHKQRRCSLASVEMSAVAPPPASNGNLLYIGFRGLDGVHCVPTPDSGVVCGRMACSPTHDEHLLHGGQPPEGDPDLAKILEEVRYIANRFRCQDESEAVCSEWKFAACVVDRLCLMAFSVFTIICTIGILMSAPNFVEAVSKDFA", "assay": "Electrophysiology at α7, dose-response and co-application with ACh (Dynaflow chip)", "format": "cell-based", "method": "Hump currents are defined as the tail current observed during co-application with endogenous ACh following agonist removal.\nThe channels were prepared as follows: Control solution (channel #2), application ligand itself (channel #3), application of acetylcholine itself (channel #1), and application of mixture of acetylcholine and ligand (channel #4).\nCurve 1, FIG. 7B: The bar above the curve indicates time of ACh application. The curve represents current induced by a one second application of 70 μM ACh. The curve illustrates the result from moving the cell from channel #2 to channel #1 for a 1 second application of ACh and back to channel 2 (washout).\nCurve 4, FIG. 7B: Curve 4 represents a repetition of Curve 1 at the end of measurements after application of the ligand and ACh/ligand mixture (recovery).\nCurve 2, FIG. 7B: The down/up arrows indicates time of application."}, "db/db mouse": {"tested_on": "db/db mouse", "assay": "Murine model of type 2 diabetes mellitus (db/db)", "format": "in vivo", "excerpt": "The db/db mouse, a well established model of type 2 diabetes mellitus, is a leptin-deficient mutant that expresses an obese phenotype and also commonly expresses metabolic symptoms including hyperglycemia, hyperlipidemia and hyperinsulinemia (Halaas et al., 1995 and Lee et al., 1996). This experimental animal model of diabetes was employed in a study designed to determine the effects of (2S,3R)—N-2-((3-pyridinyl)methyl)-1-azabicyclo[2.2.2]oct-3-yl)-3,5-difluorobenzamide on body mass and several additional metabolic parameters.\nIn this study, (2S,3R)—N-2-((3-pyridinyl)methyl)-1-azabicyclo[2.2.2]oct-3-yl)-3,5-difluorobenzamide was repeatedly administered orally (via gavage) at 1.0 mg/kg once daily starting from the age of approximately 3 weeks and continuing throughout the 7-week study. Nondiabetic heterozygote littermate mice (db/+; designated “Db”) were used as controls. Body weight and food intake were determined twice weekly. The α7 antagonist methyllycaconitine (MLA) was also given concurrently via gavage at 3 mg/kg daily to selected cohorts of db/db (designated “db”) or db/+mice. At the end of the 7-week dosing regimen, total growth rates (overall body weight gain) and average daily food intake were calculated. In addition, glucose levels were assessed in mice fasted overnight. Furthermore, blood sample analytes from mice fasted overnight were collected for measurements of tumor necrosis factor-a (TNF-α), triglycerides and glycosylated hemoglobin (HbA1c). All data are expressed as mean±SEM. For each parameter investigated, differences among all groups were compared by one-way ANOVA with post-hoc Neuman-Keuls multiple comparison test."}, "Sprague-Dawley rats": {"tested_on": "Sprague-Dawley rats", "assay": "Complete Freund's adjuvant (CFA)-induced thermal hyperalgesia", "format": "in vivo, rat", "details": "0.1, 1 or 10 mg/kg s.c., 1 hour post-dose, vs vehicle", "method": "Injection of complete Freund's adjuvant (CFA) in rats is commonly used to evaluate compounds with potential for use as drugs in treatment of mono-arthritis (osteo-arthritis) and other inflammatory conditions. Signs of hyperalgesia develop within 24 h (Schaible and Grubb, 1993).\n(2S,3R)—N-2-((3-pyridinyl)methyl)-1-azabicyclo[2.2.2]oct-3-yl)-3,5-difluorobenzamide was evaluated for possible analgesia effect in the CFA-induced thermal hyperalgesia test in rats using methods similar to those described by Walker and colleagues (2003). Briefly, adult male Sprague-Dawley rats (BioLasco, Taiwan) weighing 180±20 g on receipt were randomly assigned to treatment groups of n=8 per group. Animals each received a sub plantar injection (0.1 mL) of CFA (DIFCO, 264010; 0.1% solution) to the right hind paw at 24 h prior to experimental testing. Thermal hyperalgesia was tested using a Paw/Tail stimulator analgesia meter (IITC Model-336G, IITC, USA) with a thermally regulated glass floor set at 30° C. […] The time required for the animal to withdraw the paw from the thermal stimulus was automatically recorded. […]\nTwenty-four hours after CFA injection, subjects were pre-selected (for clear presence of thermal hyperalgesia) for experimentation only if the latency to withdrawal was less than 75% of the baseline. […] The post-treatment level of thermal hyperalgesia was then measured at 60 minutes post-treatment. […]"}, "[2]": {"target": "T1, human native ganglion-type nicotinic receptors (likely α3β4) (Homo sapiens, UniProt P30926+P32297)", "T1 construct": "human native ganglion-type nicotinic receptors (likely α3β4); endogenous in cells; host or cells: SH-SY5Y", "T1 sequence (P32297 32-505)": "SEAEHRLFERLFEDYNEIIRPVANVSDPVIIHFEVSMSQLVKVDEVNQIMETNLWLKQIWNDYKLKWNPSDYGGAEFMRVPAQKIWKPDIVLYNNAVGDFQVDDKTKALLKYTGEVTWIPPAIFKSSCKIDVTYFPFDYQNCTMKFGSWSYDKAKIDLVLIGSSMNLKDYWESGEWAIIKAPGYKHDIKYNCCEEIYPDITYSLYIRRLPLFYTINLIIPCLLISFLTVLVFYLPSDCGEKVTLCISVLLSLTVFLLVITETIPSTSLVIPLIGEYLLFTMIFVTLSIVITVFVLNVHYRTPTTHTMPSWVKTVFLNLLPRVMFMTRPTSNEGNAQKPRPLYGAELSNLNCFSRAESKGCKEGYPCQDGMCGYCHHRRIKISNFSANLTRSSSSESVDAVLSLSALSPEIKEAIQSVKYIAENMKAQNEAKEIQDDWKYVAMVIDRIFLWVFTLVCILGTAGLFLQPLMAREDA", "T1 sequence (P30926 22-498)": "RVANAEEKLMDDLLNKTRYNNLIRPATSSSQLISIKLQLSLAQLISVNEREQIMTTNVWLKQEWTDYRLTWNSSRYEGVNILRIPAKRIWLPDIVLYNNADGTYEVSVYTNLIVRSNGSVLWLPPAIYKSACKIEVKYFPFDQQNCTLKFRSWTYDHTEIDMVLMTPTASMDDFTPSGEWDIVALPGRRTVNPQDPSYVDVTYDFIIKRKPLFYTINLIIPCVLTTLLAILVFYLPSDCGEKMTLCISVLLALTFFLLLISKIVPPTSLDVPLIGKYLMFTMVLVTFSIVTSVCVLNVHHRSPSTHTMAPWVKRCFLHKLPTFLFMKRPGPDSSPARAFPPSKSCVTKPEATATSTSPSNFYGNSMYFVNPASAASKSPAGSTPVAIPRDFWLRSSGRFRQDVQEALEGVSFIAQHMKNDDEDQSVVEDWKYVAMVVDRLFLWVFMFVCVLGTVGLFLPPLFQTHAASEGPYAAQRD", "assay": "[3H]epibatidine binding, SH-SY5Y membranes", "details": "read-out: Human ganglionic (SH-SY5Y), Ki"}},
  "note": "pEC50, pKi: −log10 of the molar value. Where two headings read alike, the source gives them in different places.",
  "data": [
    {"smiles": "O=C(N[C@@H]1C2CCN(CC2)[C@H]1Cc1cccnc1)c1cc(F)cc(F)c1", "note": "[Compound A]", "values": [
      {"measurement": "type of activity at the α7 NNR", "setting": "[1]", "result": "partial agonists"},
      {"measurement": "current on application of the ligand following application of ACh", "setting": "[1]; 200 nM ligand, Curve 3 FIG. 7B", "result": "profound “hump” current"},
      {"measurement": "current on application of the ligand alone", "setting": "[1]; 200 nM, 5 second application, Curve 2 FIG. 7B", "result": "do not produce robust macro currents"},
      {"measurement": "effect on ACh-induced current", "setting": "[1]; co-application of compound with ACh, FIG. 6", "result": "enhances ACh-induced current"},
      {"measurement": "pEC50", "setting": "[1]; co-application with ACh, 100-500 nM range, n=4, FIG. 7C, read-out: EC50 of hump current", "result": 6.92},
      {"measurement": "concentration at Emax of hump current", "setting": "[1]; co-application with ACh, FIG. 7C", "result": "approximately 500 nM"},
      {"measurement": "Emax", "setting": "[1]; dose-response, FIG. 5", "result": 54.4, "unit": "%"},
      {"measurement": "pEC50", "setting": "[1]; dose-response, FIG. 5, read-out: EC50 at α7 nicotinic receptors", "result": 5.80},
      {"measurement": "food consumption", "setting": "db/db mouse; lean (db/+) mice, 1.0 mg/kg oral daily, FIG. 16", "result": "unaffected"},
      {"measurement": "total body weight gain", "setting": "db/db mouse; obese db/db mice, 1.0 mg/kg oral daily, 7 weeks, FIG. 15", "result": "significantly lower"},
      {"measurement": "average food consumption", "setting": "db/db mouse; obese db/db mice, 1.0 mg/kg oral daily, 7 weeks, vs obese controls, FIG. 16", "result": "significantly lower"},
      {"measurement": "all parameters measured", "setting": "db/db mouse; obese db/db mice, 1.0 mg/kg oral once daily, 7 weeks, vs vehicle-treated obese db/db", "result": "significant decrease in all parameters measured"},
      {"measurement": "fasting plasma glucose levels", "setting": "db/db mouse; obese mice, 1.0 mg/kg oral daily, 7 weeks, FIG. 17", "result": "significantly inhibited"},
      {"measurement": "glycosylated HbA1c levels", "setting": "db/db mouse; obese mice, 1.0 mg/kg oral daily, 7 weeks, FIG. 18", "result": "significantly inhibited"},
      {"measurement": "pro-inflammatory cytokine TNF alpha", "setting": "db/db mouse; obese mice, 1.0 mg/kg oral daily, 7 weeks, FIG. 19", "result": "significantly reduced"},
      {"measurement": "triglyceride levels", "setting": "db/db mouse; obese mice, 1.0 mg/kg oral daily, 7 weeks, vs vehicle-treated controls, FIG. 20", "result": "significantly lower"},
      {"measurement": "analgesic effect on CFA-induced thermal hyperalgesia", "setting": "Sprague-Dawley rats", "result": "not associated with any significant analgesic effect"},
      {"measurement": "pKi", "setting": "[2]", "result": 4.32}
    ]}
  ]
}
